Test results: patent publication US20170042991A1, “COMPOSITIONS COMPRISING GLUTEN PEPTIDES AND USES THEREOF” (ImmusanT, Inc., priority 2014, published 2017)
Non-standard residues stand in square brackets, D forms with d. pGlu = O=C1CC[C@@H](C(=O)O)N1

Key:
Format in all cases: cell-based, human
whole blood [1] = assay: 96-well plate whole blood multiplex cytokine release, IFNγ (MAGPIX bead assay, Example 2); conditions: for Percent of maximal response, IFNg: after oral gluten challenge; for IFNγ WB MAGPIX % max Mean: individual peptides 5 μM, Day-6, n = 8, Peptide 2 = CSBio batch
whole blood [2] = assay: 96-well plate whole blood multiplex cytokine release, IP-10 (MAGPIX bead assay, Example 2); conditions: for Percent of maximal response, IP-10: after oral gluten challenge; for IP-10 WB MAGPIX % max Mean: individual peptides 5 μM, Day-6, n = 10, Peptide 2 = CSBio batch
PBMC [3] = assay: Overnight IFNγ ELISpot assay with fresh PBMC (Example 2); conditions: for Percent of maximal response, ELISp: after oral gluten challenge; for IFNγ ELISpot % max Mean: individual peptides 5 μM, Day-6, n = 5, Peptide 2 = CSBio batch
Method: Ten HLA-DQ2.5+ adults with celiac disease diagnosed according to the National Institutes of Health Consensus Statement 2004 were enrolled (Table 7).^22 Subjects were required to have followed gluten-free diet for at least one year and without known gluten exposures within the previous two-months. […] Full inclusion and exclusion criteria are described in Table 8. Each of 3 consecutive days subjects consumed 3 cookies that were prepared from approximately 4.5 g wheat gluten, 3 g barley flour protein, and 1.5 g rye flour protein. Blood was collected before and six days after commencing the oral challenge. Blood was collected using a 21G butterfly needle directly into 10 mL lithium heparin tubes (BD Vacutainer® Heparin tube #367880) and QuantiFERON® NIL (0591-0205, Cellestis Ltd., Chadstone VIC 3148 Australia) and QuantiFERON® MITOGEN (0593-0201, Cellestis Ltd.).
Overnight IFNγ ELISpot assays (Human IFN-γ ELISpotPRO kit, transparent, ALP; Mabtech AB, #3420-2APT-10) were performed using PBMC freshly separated from heparinized blood diluted 1:1 in PBS with 2% fetal bovine serum (Stemcell Technologies #07905; Vancouver, BC, V5Z 1B3, Canada) overlaid on density gradient medium (Ficoll-Paque™ PLUS; GE Healthcare Lice Sciences #:17-1440-02) in SepMate™-50 tubes (Stemcell Technologies #15460). PBMC (8 million/mL) were resuspended in serum-free medium with gentamicin and phenol red (X-VIVO™15; Lonza, Walkersville Mass. 21793). PBMC (0.4 million/50 μL/well) and incubated with 50 μL 80% X-vivol5, 0.2% DMSO and 20% PBS in three triplicate wells (“medium only”), or with 50 μL PHA-L 20 μg/ml or peptide at 2× final concentration in 80% X-vivol5, 0.2% DMSO and 20% PBS. Peptide solutions to be added to individual ELISpot wells were prepared in 96-well U-bottom plates (60 μL/well) that were then sealed with adhesive ELISA plate cover slips before replacing the plastic lid and being frozen at −80° C. 96-well plates containing peptide solutions were thawed at room temperature for 10 min while being centrifuged at 300 g immediately prior to being added to ELISpot wells. Peptide pools and mitogen were assessed in triplicate wells, and individual peptides were assessed in duplicate wells. X-VIVO™15 (50 μL) was incubated with 80% X-vivol5, 0.2% DMSO and 20% PBS (50 μL) in triplicate wells (“no PBMC” control). A Zeiss automated ELISpot counter was used to determine spot forming units (SFU) per well (Zellnet Inc., Fort Lee, N.J. 07024). Laboratory staff were unaware of the arrangement of peptide solutions in ELISpot wells during assay setup and plate counting.

PBMC [4] = assay: IFN-gamma ELISpot of PBMC, Day-6 after gluten challenge (Example 1); conditions: DQ2.5+ CD

Substance	Percent of maximal response, IFNg (whole blood [1]; Subject 2, Max. 116 pg/mL)	Percent of maximal response, IFNg (whole blood [1]; Subject 3, Max. 799 pg/mL)	Percent of maximal response, IFNg (whole blood [1]; Subject 4, Max. 136 pg/mL)	Percent of maximal response, IFNg (whole blood [1]; Subject 6, Max. 72 pg/mL)	Percent of maximal response, IFNg (whole blood [1]; Subject 7, Max. 17 pg/mL)	Percent of maximal response, IFNg (whole blood [1]; Subject 8, Max. 47 pg/mL)	Percent of maximal response, IFNg (whole blood [1]; Subject 9, Max. 67 pg/mL)	Percent of maximal response, IFNg (whole blood [1]; Subject 10, Max. 229 pg/mL)	IFNγ WB MAGPIX % max Mean (whole blood [1])	Percent of maximal response, IP-10 (whole blood [2]; Subject 1, Max. 2331 pg/mL)	Percent of maximal response, IP-10 (whole blood [2]; Subject 2, Max. 3646 pg/mL)	Percent of maximal response, IP-10 (whole blood [2]; Subject 3, Max. 9492 pg/mL)	Percent of maximal response, IP-10 (whole blood [2]; Subject 4, Max. 9463 pg/mL)	Percent of maximal response, IP-10 (whole blood [2]; Subject 5, Max. 9336 pg/mL)	Percent of maximal response, IP-10 (whole blood [2]; Subject 6, Max. 5863 pg/mL)	Percent of maximal response, IP-10 (whole blood [2]; Subject 7, Max. 2330 pg/mL)	Percent of maximal response, IP-10 (whole blood [2]; Subject 8, Max. 4019 pg/mL)	Percent of maximal response, IP-10 (whole blood [2]; Subject 9, Max. 8349 pg/mL)	Percent of maximal response, IP-10 (whole blood [2]; Subject 10, Max. 8922 pg/mL)	IP-10 WB MAGPIX % max Mean (whole blood [2])	other results
(pE)PEQPIPEQPQPYPQQ-amide ([pGlu]PEQPIPEQPQPYPQQ-NH2; SMILES CC[C@H](C)[C@H](NC(=O)[C@@H]1CCCN1C(=O)[C@H](CCC(N)=O)NC(=O)[C@H](CCC(=O)O)NC(=O)[C@@H]1CCCN1C(=O)[C@@H]1CCC(=O)N1)C(=O)N1CCC[C@H]1C(=O)N[C@@H](CCC(=O)O)C(=O)N[C@@H](CCC(N)=O)C(=O)N1CCC[C@H]1C(=O)N[C@@H](CCC(N)=O)C(=O)N1CCC[C@H]1C(=O)N[C@@H](Cc1ccc(O)cc1)C(=O)N1CCC[C@H]1C(=O)N[C@@H](CCC(N)=O)C(=O)N[C@@H](CCC(N)=O)C(N)=O) [Peptide 3]	35 % of max	92 % of max	66 % of max	63 % of max	6 % of max	89 % of max	60 % of max	81 % of max	62 % max	51 % of max	14 % of max	≥ 100 % of max	≥ 100 % of max	53 % of max	43 % of max	5 % of max	100 % of max	85 % of max	≥ 100 % of max	65 % max	whole blood IFNγ release compared with that stimulated by Peptide 14 (whole blood [1]; whole blood incubations): one-third less; whole blood IP-10 release compared with that stimulated by Peptide 14 (whole blood [2]; whole blood incubations): one-quarter less; IFNγ ELISpot responses relative to Peptide 14 5 μM (PBMC [3]; Peptide 3 10 μg/mL (5.3 μM)): one-half; Percent of maximal response, ELISp (PBMC [3]; Subject 3, Max. 18 SFU): 50 % of max; Percent of maximal response, ELISp (PBMC [3]; Subject 4, Max. 36 SFU): 83 % of max; Percent of maximal response, ELISp (PBMC [3]; Subject 6, Max. 16 SFU): 69 % of max; Percent of maximal response, ELISp (PBMC [3]; Subject 8, Max. 17 SFU): 53 % of max; Percent of maximal response, ELISp (PBMC [3]; Subject 10, Max. 11 SFU): 9 % of max; IFNγ ELISpot % max Mean (PBMC [3]): 53 % max; Peptide-specific IFN-gamma ELISpot response (PBMC [4]; Subject 1, 10 ug/ml): 0 spot forming units per 0.8 million PBMC; Peptide-specific IFN-gamma ELISpot response (PBMC [4]; Subject 2, 10 ug/ml): 1 spot forming units per 0.8 million PBMC; Peptide-specific IFN-gamma ELISpot response (PBMC [4]; Subject 3, 10 ug/ml): 9 spot forming units per 0.8 million PBMC; Peptide-specific IFN-gamma ELISpot response (PBMC [4]; Subject 4, 10 ug/ml): 30 spot forming units per 0.8 million PBMC; Peptide-specific IFN-gamma ELISpot response (PBMC [4]; Subject 5, 10 ug/ml): 0 spot forming units per 0.8 million PBMC; Peptide-specific IFN-gamma ELISpot response (PBMC [4]; Subject 6, 10 ug/ml): 11 spot forming units per 0.8 million PBMC; Peptide-specific IFN-gamma ELISpot response (PBMC [4]; Subject 7, 10 ug/ml): 1 spot forming units per 0.8 million PBMC; Peptide-specific IFN-gamma ELISpot response (PBMC [4]; Subject 8, 10 ug/ml): 9 spot forming units per 0.8 million PBMC; Peptide-specific IFN-gamma ELISpot response (PBMC [4]; Subject 9, 10 ug/ml): 3 spot forming units per 0.8 million PBMC; Peptide-specific IFN-gamma ELISpot response (PBMC [4]; Subject 10, 10 ug/ml): 1 spot forming units per 0.8 million PBMC
(pE)LQPFPQPELPYPQPQ-amide ([pGlu]LQPFPQPELPYPQPQ-NH2; SMILES CC(C)C[C@H](NC(=O)[C@@H]1CCC(=O)N1)C(=O)N[C@@H](CCC(N)=O)C(=O)N1CCC[C@H]1C(=O)N[C@@H](Cc1ccccc1)C(=O)N1CCC[C@H]1C(=O)N[C@@H](CCC(N)=O)C(=O)N1CCC[C@H]1C(=O)N[C@@H](CCC(=O)O)C(=O)N[C@@H](CC(C)C)C(=O)N1CCC[C@H]1C(=O)N[C@@H](Cc1ccc(O)cc1)C(=O)N1CCC[C@H]1C(=O)N[C@@H](CCC(N)=O)C(=O)N1CCC[C@H]1C(=O)N[C@@H](CCC(N)=O)C(N)=O) [Peptide 1]	100 % of max	14 % of max	26 % of max	25 % of max	43 % of max	6 % of max	43 % of max	7 % of max	33 % max	100 % of max	100 % of max	≥ 100 % of max	96 % of max	14 % of max	23 % of max	39 % of max	3 % of max	75 % of max	34 % of max	58 % max	Percent of maximal response, ELISp (PBMC [3]; Subject 3, Max. 18 SFU): 11 % of max; Percent of maximal response, ELISp (PBMC [3]; Subject 4, Max. 36 SFU): 22 % of max; Percent of maximal response, ELISp (PBMC [3]; Subject 6, Max. 16 SFU): 25 % of max; Percent of maximal response, ELISp (PBMC [3]; Subject 8, Max. 17 SFU): 0 % of max; Percent of maximal response, ELISp (PBMC [3]; Subject 10, Max. 11 SFU): 9 % of max; IFNγ ELISpot % max Mean (PBMC [3]): 13 % max; Peptide-specific IFN-gamma ELISpot response (PBMC [4]; Subject 1, 10 ug/ml): 2 spot forming units per 0.8 million PBMC; Peptide-specific IFN-gamma ELISpot response (PBMC [4]; Subject 2, 10 ug/ml): 4 spot forming units per 0.8 million PBMC; Peptide-specific IFN-gamma ELISpot response (PBMC [4]; Subject 3, 10 ug/ml): 2 spot forming units per 0.8 million PBMC; Peptide-specific IFN-gamma ELISpot response (PBMC [4]; Subject 4, 10 ug/ml): 8 spot forming units per 0.8 million PBMC; Peptide-specific IFN-gamma ELISpot response (PBMC [4]; Subject 5, 10 ug/ml): 0 spot forming units per 0.8 million PBMC; Peptide-specific IFN-gamma ELISpot response (PBMC [4]; Subject 6, 10 ug/ml): 4 spot forming units per 0.8 million PBMC; Peptide-specific IFN-gamma ELISpot response (PBMC [4]; Subject 7, 10 ug/ml): 1 spot forming units per 0.8 million PBMC; Peptide-specific IFN-gamma ELISpot response (PBMC [4]; Subject 8, 10 ug/ml): 0 spot forming units per 0.8 million PBMC; Peptide-specific IFN-gamma ELISpot response (PBMC [4]; Subject 9, 10 ug/ml): 0 spot forming units per 0.8 million PBMC; Peptide-specific IFN-gamma ELISpot response (PBMC [4]; Subject 10, 10 ug/ml): 1 spot forming units per 0.8 million PBMC
